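In this assay, cells in 96-well plates receive the compound at five concentrations for 48 hours. Endpoints are linearly interpolated between the surrounding concentrations. Here, GI50 denotes the concentration required for 50% inhibition of growth.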 Activity calls are given as the source filed them. Rule as the data show it: active = GI50 up to about 1.1 µM and inactive = higher.
Key:
Experiment in all cases: NCI tumour cell line growth inhibition, 48 h
786-0 = tested on: 786-0
A498 = tested on: A498
A549 = tested on: A549
ACHN = tested on: ACHN
BT-549 = tested on: BT-549
CAKI-1 = tested on: CAKI-1
CCRF-CEM = tested on: CCRF-CEM
COLO 205 = tested on: COLO 205
DU-145 = tested on: DU-145
EKVX = tested on: EKVX
HCC 2998 = tested on: HCC 2998
HCT-116 = tested on: HCT-116
HCT-15 = tested on: HCT-15
HL-60 = tested on: HL-60
HOP-62 = tested on: HOP-62
HOP-92 = tested on: HOP-92
HT-29 = tested on: HT-29
Hs-578T = tested on: Hs-578T
IGROV-1 = tested on: IGROV-1
K562 = tested on: K562
KM12 = tested on: KM12
LOX IMVI = tested on: LOX IMVI
M14 = tested on: M14
MCF7 = tested on: MCF7
MDA-MB-231 = tested on: MDA-MB-231
MDA-MB-435 = tested on: MDA-MB-435
MDA-N = tested on: MDA-N
MOLT-4 = tested on: MOLT-4
Malme-3M = tested on: Malme-3M
NCI-H226 = tested on: NCI-H226
NCI-H23 = tested on: NCI-H23
NCI-H460 = tested on: NCI-H460
NCI-H522 = tested on: NCI-H522
NCI/ADR-RES = tested on: NCI/ADR-RES
OVCAR-3 = tested on: OVCAR-3
OVCAR-4 = tested on: OVCAR-4
OVCAR-5 = tested on: OVCAR-5
OVCAR-8 = tested on: OVCAR-8
PC-3 = tested on: PC-3
RPMI-8226 = tested on: RPMI-8226
RXF 393 = tested on: RXF 393
SF-268 = tested on: SF-268
SF-295 = tested on: SF-295
SF-539 = tested on: SF-539
SK-MEL-28 = tested on: SK-MEL-28
SK-MEL-2 = tested on: SK-MEL-2
SK-MEL-5 = tested on: SK-MEL-5
SK-OV-3 = tested on: SK-OV-3
SN12C = tested on: SN12C
SNB-19 = tested on: SNB-19
SNB-75 = tested on: SNB-75
SR = tested on: SR
SW-620 = tested on: SW-620
T47D = tested on: T47D
TK-10 = tested on: TK-10
U-251 = tested on: U-251
UACC-257 = tested on: UACC-257
UACC-62 = tested on: UACC-62
UO-31 = tested on: UO-31
DLD-1 = tested on: DLD-1
DMS-114 = tested on: DMS-114
DMS-273 = tested on: DMS-273
KM-20L2 = tested on: KM-20L2
LXFL 529 = tested on: LXFL 529
SNB-78 = tested on: SNB-78
M19-MEL = tested on: M19-MEL

With `CC(=O)OCC(=O)O[C@@H]1[C@H]2[C@@H](OC(=O)c3ccccc3)[C@@H](C)C[C@]2(O)[C@H](OC(C)=O)[C@@]2(C)C(OC(C)=O)[C@]1(OC(C)=O)C[C@H]1C(=O)C(C)(C)C[C@@H]12` (stereo not given in full) the GI50 (786-0) was > 50 µM (inactive), the GI50 (A498) was 29.1 µM (inactive) and the GI50 (A549) was 9.98 µM (inactive). The GI50 (ACHN) was > 45.3 µM (inactive), the GI50 (BT-549) was > 35 µM (inactive) and the GI50 (CAKI-1) was 37.6 µM (inactive). For the same compound, the GI50 (CCRF-CEM) was > 11.2 µM (inactive), the GI50 (COLO 205) was 12.8 µM (inactive) and the GI50 (DU-145) was > 50 µM (inactive). For the same compound, the GI50 (EKVX) was > 42 µM (inactive), the GI50 (HCC 2998) was 25.8 µM (inactive) and the GI50 (HCT-116) was > 50 µM (inactive). The GI50 (HCT-15) was greater than 47.1 µM, the GI50 (HL-60) was 6.46 µM (inactive) and the GI50 (HOP-62) was > 22.6 µM (inactive). The GI50 (HOP-92) was > 31.7 µM (inactive), the GI50 (HT-29) was 25.8 µM (inactive) and the GI50 (Hs-578T) was > 26.9 µM (inactive). For the same compound, the GI50 (IGROV-1) was > 50 µM (inactive), the GI50 (K562) was 9.02 µM (inactive) and the GI50 (KM12) was > 50 µM (inactive). For the same compound, the GI50 (LOX IMVI) was > 50 µM (inactive), the GI50 (M14) was > 50 µM (inactive) and the GI50 (MCF7) was > 50 µM (inactive). For the same compound, the GI50 (MDA-MB-231) was > 50 µM (inactive), the GI50 (MDA-MB-435) was 26.2 µM (inactive) and the GI50 (MDA-N) was 18.1 µM (inactive). The GI50 (MOLT-4) was > 19.6 µM (inactive), the GI50 (Malme-3M) was 35.9 µM (inactive) and the GI50 (NCI-H226) was > 50 µM (inactive). The GI50 (NCI-H23) was > 50 µM (inactive), the GI50 (NCI-H460) was 4.12 µM (inactive) and the GI50 (NCI-H522) was > 50 µM (inactive). For the same compound, the GI50 (NCI/ADR-RES) was > 50 µM (inactive), the GI50 (OVCAR-3) was > 46.6 µM (inactive) and the GI50 (OVCAR-4) was > 34.2 µM (inactive). For the same compound, the GI50 (OVCAR-5) was > 50 µM (inactive), the GI50 (OVCAR-8) was > 50 µM (inactive) and the GI50 (PC-3) was > 47.9 µM (inactive). The GI50 (RPMI-8226) was 13.3 µM (inactive), the GI50 (RXF 393) was > 50 µM (inactive) and the GI50 (SF-268) was > 50 µM (inactive). For the same compound, the GI50 (SF-295) was 22.4 µM (inactive), the GI50 (SF-539) was 34.5 µM (inactive) and the GI50 (SK-MEL-28) was > 50 µM (inactive). The GI50 (SK-MEL-2) was > 50 µM (inactive), the GI50 (SK-MEL-5) was 31 µM (inactive) and the GI50 (SK-OV-3) was > 50 µM (inactive). The GI50 (SN12C) was > 50 µM (inactive), the GI50 (SNB-19) was > 50 µM (inactive) and the GI50 (SNB-75) was > 50 µM (inactive). The GI50 (SR) was > 50 µM (inactive), the GI50 (SW-620) was > 50 µM (inactive) and the GI50 (T47D) was > 50 µM (inactive). The GI50 (TK-10) was > 50 µM (inactive), the GI50 (U-251) was > 50 µM (inactive) and the GI50 (UACC-257) was > 50 µM (inactive). The GI50 (UACC-62) was > 50 µM (inactive) and the GI50 (UO-31) was > 50 µM (inactive).
`COc1cc2cc3c4c(cc(OC)c(OC)c4c2cc1OC)CCN3C(=O)CCC(=O)O` was tested, and the GI50 (786-0) was > 100 µM (inactive), the GI50 (A498) was 97.9 µM (inactive) and the GI50 (A549) was > 100 µM (inactive). The GI50 (ACHN) was > 100 µM (inactive), the GI50 (CAKI-1) was > 100 µM (inactive) and the GI50 (CCRF-CEM) was > 100 µM (inactive). The GI50 (COLO 205) was > 100 µM (inactive), the GI50 (DLD-1) was > 100 µM (inactive) and the GI50 (DMS-114) was > 100 µM (inactive). For the same compound, the GI50 (DMS-273) was > 100 µM (inactive), the GI50 (EKVX) was > 100 µM (inactive) and the GI50 (HCC 2998) was > 100 µM (inactive). The GI50 (HCT-116) was > 100 µM (inactive), the GI50 (HL-60) was > 100 µM (inactive) and the GI50 (HOP-62) was > 100 µM (inactive). For the same compound, the GI50 (HOP-92) was > 100 µM (inactive), the GI50 (HT-29) was > 100 µM (inactive) and the GI50 (IGROV-1) was > 100 µM (inactive). For the same compound, the GI50 (K562) was > 100 µM (inactive), the GI50 (KM-20L2) was > 100 µM (inactive) and the GI50 (KM12) was > 100 µM (inactive). The GI50 (LOX IMVI) was > 100 µM (inactive), the GI50 (LXFL 529) was > 100 µM (inactive) and the GI50 (M14) was > 100 µM (inactive). For the same compound, the GI50 (MOLT-4) was > 100 µM (inactive), the GI50 (Malme-3M) was > 100 µM (inactive) and the GI50 (NCI-H226) was > 100 µM (inactive). For the same compound, the GI50 (NCI-H23) was > 100 µM (inactive), the GI50 (NCI-H522) was > 100 µM (inactive) and the GI50 (OVCAR-3) was > 100 µM (inactive). The GI50 (OVCAR-4) was > 100 µM (inactive), the GI50 (OVCAR-5) was > 100 µM (inactive) and the GI50 (RPMI-8226) was > 100 µM (inactive). The GI50 (RXF 393) was > 100 µM (inactive), the GI50 (SF-268) was > 100 µM (inactive) and the GI50 (SF-295) was > 100 µM (inactive). The GI50 (SF-539) was > 100 µM (inactive), the GI50 (SK-MEL-28) was > 100 µM (inactive) and the GI50 (SK-MEL-2) was > 100 µM (inactive). For the same compound, the GI50 (SK-MEL-5) was > 100 µM (inactive), the GI50 (SK-OV-3) was > 100 µM (inactive) and the GI50 (SN12C) was > 100 µM (inactive). The GI50 (SNB-19) was > 100 µM (inactive), the GI50 (SNB-78) was > 100 µM (inactive) and the GI50 (SR) was > 100 µM (inactive). The GI50 (SW-620) was > 100 µM (inactive), the GI50 (TK-10) was > 100 µM (inactive) and the GI50 (U-251) was > 100 µM (inactive). The GI50 (UACC-257) was > 100 µM (inactive), the GI50 (UACC-62) was > 100 µM (inactive) and the GI50 (UO-31) was > 100 µM (inactive).
`C=C(C)C1CC=C(C)[C@](O)(C2(O)C[C@H](C(=C)C)CC=C2C)C1` (stereo not given in full) was tested, and the GI50 (A498) was > 100 µM (inactive), the GI50 (A549) was > 100 µM (inactive) and the GI50 (ACHN) was > 100 µM (inactive). For the same compound, the GI50 (CCRF-CEM) was > 100 µM (inactive), the GI50 (DMS-114) was > 100 µM (inactive) and the GI50 (DMS-273) was > 100 µM (inactive). The GI50 (EKVX) was > 100 µM (inactive), the GI50 (HCT-116) was > 100 µM (inactive) and the GI50 (HL-60) was > 100 µM (inactive). The GI50 (HOP-62) was > 100 µM (inactive), the GI50 (HOP-92) was > 100 µM (inactive) and the GI50 (HT-29) was > 100 µM (inactive). The GI50 (IGROV-1) was > 100 µM (inactive), the GI50 (KM-20L2) was > 100 µM (inactive) and the GI50 (KM12) was > 100 µM (inactive). The GI50 (M14) was > 100 µM (inactive), the GI50 (M19-MEL) was > 100 µM (inactive) and the GI50 (MOLT-4) was > 100 µM (inactive). The GI50 (NCI-H23) was > 100 µM (inactive), the GI50 (NCI-H460) was > 100 µM (inactive) and the GI50 (NCI-H522) was > 100 µM (inactive). For the same compound, the GI50 (OVCAR-5) was > 100 µM (inactive), the GI50 (OVCAR-8) was > 100 µM (inactive) and the GI50 (RXF 393) was > 100 µM (inactive). For the same compound, the GI50 (SF-295) was > 100 µM (inactive), the GI50 (SK-MEL-28) was > 100 µM (inactive) and the GI50 (SK-OV-3) was > 100 µM (inactive). The GI50 (SNB-19) was > 100 µM (inactive), the GI50 (SNB-78) was > 100 µM (inactive) and the GI50 (SR) was > 100 µM (inactive). For the same compound, the GI50 (TK-10) was > 100 µM (inactive), the GI50 (U-251) was > 100 µM (inactive) and the GI50 (UACC-257) was > 100 µM (inactive). For the same compound, the GI50 (UACC-62) was > 100 µM (inactive) and the GI50 (UO-31) was > 100 µM (inactive).

From ChEMBL document CHEMBL1201862, “PubChem BioAssay data set” (2004)
